Assay results as given in patent US11395857B2, “Radiolabeled melanocortin 1 receptor-specific alpha-melanocyte-stimulating hormone analogues for imaging or therapy” (PROVINCIAL HEALTH SERVICES AUTHORITY, priority 2018, dated 2022).
Read-outs that look alike come from different tables or passages of the source.

Columns and labels:
[1] = Biodistribution of 177Lu-labeled αMSH analogues in mice bearing B16F10 mouse melanoma; format: in vivo, C57BL/6J mice; conditions: mouse, iv, total radioactivity, C57BL/6J mice, B16F10 melanoma
Experimental: (§1) The B16-F10 mouse melanoma cells were cultured and inoculated in mice as described in Example 1.
(§2) For biodistribution studies, approximately 1-2 MBq of ^177Lu-labeled αMSH analogues via tail vein under anesthesia. At 1, 4, 24, and 120 h p.i., the mice were euthanized by CO2 inhalation. Organs/tissues were harvested and the radioactivity was measured as described in Example 1.

B16F10 mouse melanoma = test: as above; format: in vivo, C57BL/6J mice; conditions: C57BL/6J mice, B16F10 melanoma
Experimental: as §1, §2

Compound CCCC[C@H](NC(=O)CN1CCC(NC(=O)CN2CCN(CC(=O)O)CCN(CC(=O)O)CCN(CC(=O)O)CC2)CC1)C(=O)N[C@H]1CC(=O)NCCCC[C@@H](C(N)=O)N(C)C(=O)[C@H](Cc2c[nH]c3ccccc23)N(C)C(=O)[C@H](CCCNC(=N)N)N(C)C(=O)[C@@H](Cc2ccccc2)NC(=O)[C@H](Cc2c[nH]cn2)N(C)C1=O [^177Lu-labeled CCZ01099, metal not drawn] has a tissue uptake at 1 h ([1]; male, seminal glands, 1 h p.i., read-out: Biodistribution, Seminal glands) of 0.06 ± 0.02 %ID/g, a tissue uptake at 4 h ([1]; male, seminal glands, 4 h p.i., read-out: Biodistribution, Seminal glands) of 0.02 %ID/g and a tissue uptake at 24 h ([1]; male, seminal glands, 24 h p.i., read-out: Biodistribution, Seminal glands) of 0.01 %ID/g. The tissue uptake at 1 h ([1]; male, testes, 1 h p.i., read-out: Biodistribution, Testes) was 0.13 ± 0.02 %ID/g, the tissue uptake at 4 h ([1]; male, testes, 4 h p.i., read-out: Biodistribution, Testes) was 0.03 %ID/g and the tissue uptake at 24 h ([1]; male, testes, 24 h p.i., read-out: Biodistribution, Testes) was 0.03 %ID/g. The tissue uptake at 120 h ([1]; male, testes, 120 h p.i., read-out: Biodistribution, Testes) was 0.02 ± 0.01 %ID/g, the tissue uptake at 1 h ([1]; adrenal glands, 1 h p.i., read-out: Biodistribution, Adrenal glands) was 0.39 ± 0.13 %ID/g and the tissue uptake at 4 h ([1]; adrenal glands, 4 h p.i., read-out: Biodistribution, Adrenal glands) was 0.19 ± 0.06 %ID/g. It also gave a tissue uptake at 24 h ([1]; adrenal glands, 24 h p.i., read-out: Biodistribution, Adrenal glands) of 0.1 ± 0.04 %ID/g, a tissue uptake at 120 h ([1]; adrenal glands, 120 h p.i., read-out: Biodistribution, Adrenal glands) of 0.03 ± 0.03 %ID/g and a tissue uptake at 1 h ([1]; blood, 1 h p.i., read-out: Biodistribution, Blood) of 0.48 ± 0.22 %ID/g. The tissue uptake at 4 h ([1]; blood, 4 h p.i., read-out: Biodistribution, Blood) was 0.05 ± 0.01 %ID/g, the tissue uptake at 24 h ([1]; blood, 24 h p.i., read-out: Biodistribution, Blood) was 0.01 %ID/g and the tissue uptake at 1 h ([1]; bone, 1 h p.i., read-out: Biodistribution, Bone) was 0.13 ± 0.03 %ID/g. It also gave a tissue uptake at 4 h ([1]; bone, 4 h p.i., read-out: Biodistribution, Bone) of 0.06 ± 0.02 %ID/g, a tissue uptake at 24 h ([1]; bone, 24 h p.i., read-out: Biodistribution, Bone) of 0.04 ± 0.01 %ID/g and a tissue uptake at 120 h ([1]; bone, 120 h p.i., read-out: Biodistribution, Bone) of 0.02 ± 0.01 %ID/g. For the same compound, the tissue uptake at 1 h ([1]; brain, 1 h p.i., read-out: Biodistribution, Brain) was 0.02 %ID/g, the tissue uptake at 4 h ([1]; brain, 4 h p.i., read-out: Biodistribution, Brain) was 0.01 %ID/g and the tissue uptake at 1 h ([1]; fat, 1 h p.i., read-out: Biodistribution, Fat) was 0.06 ± 0.02 %ID/g. The tissue uptake at 4 h ([1]; fat, 4 h p.i., read-out: Biodistribution, Fat) was 0.01 %ID/g, the tissue uptake at 24 h ([1]; fat, 24 h p.i., read-out: Biodistribution, Fat) was 0.01 %ID/g and the tissue uptake at 120 h ([1]; fat, 120 h p.i., read-out: Biodistribution, Fat) was 0.01 %ID/g. For the same compound, the tissue uptake at 1 h ([1]; heart, 1 h p.i., read-out: Biodistribution, Heart) was 0.17 ± 0.06 %ID/g, the tissue uptake at 4 h ([1]; heart, 4 h p.i., read-out: Biodistribution, Heart) was 0.04 ± 0.01 %ID/g and the tissue uptake at 24 h ([1]; heart, 24 h p.i., read-out: Biodistribution, Heart) was 0.03 %ID/g. For the same compound, the tissue uptake at 120 h ([1]; heart, 120 h p.i., read-out: Biodistribution, Heart) was 0.02 %ID/g, the tissue uptake at 1 h ([1]; intestine, 1 h p.i., read-out: Biodistribution, Intestine) was 0.25 ± 0.03 %ID/g and the tissue uptake at 4 h ([1]; intestine, 4 h p.i., read-out: Biodistribution, Intestine) was 0.12 ± 0.06 %ID/g. The tissue uptake at 24 h ([1]; intestine, 24 h p.i., read-out: Biodistribution, Intestine) was 0.23 ± 0.28 %ID/g, the tissue uptake at 120 h ([1]; intestine, 120 h p.i., read-out: Biodistribution, Intestine) was 0.12 ± 0.16 %ID/g and the tissue uptake at 1 h ([1]; kidneys, 1 h p.i., read-out: Biodistribution, Kidneys) was 4.15 ± 0.99 %ID/g. For the same compound, the tissue uptake at 4 h ([1]; kidneys, 4 h p.i., read-out: Biodistribution, Kidneys) was 4.32 ± 2.06 %ID/g, the tissue uptake at 24 h ([1]; kidneys, 24 h p.i., read-out: Biodistribution, Kidneys) was 1.61 ± 0.29 %ID/g and the tissue uptake at 120 h ([1]; kidneys, 120 h p.i., read-out: Biodistribution, Kidneys) was 0.5 ± 0.02 %ID/g. It also gave a tissue uptake at 1 h ([1]; liver, 1 h p.i., read-out: Biodistribution, Liver) of 0.41 ± 0.11 %ID/g, a tissue uptake at 4 h ([1]; liver, 4 h p.i., read-out: Biodistribution, Liver) of 0.34 ± 0.1 %ID/g and a tissue uptake at 24 h ([1]; liver, 24 h p.i., read-out: Biodistribution, Liver) of 0.32 ± 0.13 %ID/g. For the same compound, the tissue uptake at 120 h ([1]; liver, 120 h p.i., read-out: Biodistribution, Liver) was 0.19 ± 0.02 %ID/g, the tissue uptake at 1 h ([1]; lungs, 1 h p.i., read-out: Biodistribution, Lungs) was 0.54 ± 0.2 %ID/g and the tissue uptake at 4 h ([1]; lungs, 4 h p.i., read-out: Biodistribution, Lungs) was 0.17 ± 0.06 %ID/g. The tissue uptake at 24 h ([1]; lungs, 24 h p.i., read-out: Biodistribution, Lungs) was 0.07 ± 0.02 %ID/g, the tissue uptake at 120 h ([1]; lungs, 120 h p.i., read-out: Biodistribution, Lungs) was 0.04 ± 0.01 %ID/g and the tissue uptake at 1 h ([1]; muscle, 1 h p.i., read-out: Biodistribution, Muscle) was 0.1 ± 0.04 %ID/g. For the same compound, the tissue uptake at 4 h ([1]; muscle, 4 h p.i., read-out: Biodistribution, Muscle) was 0.02 %ID/g, the tissue uptake at 24 h ([1]; muscle, 24 h p.i., read-out: Biodistribution, Muscle) was 0.01 %ID/g and the tissue uptake at 120 h ([1]; muscle, 120 h p.i., read-out: Biodistribution, Muscle) was 0.01 %ID/g. The tissue uptake at 1 h ([1]; pancreas, 1 h p.i., read-out: Biodistribution, Pancreas) was 0.13 ± 0.05 %ID/g, the tissue uptake at 4 h ([1]; pancreas, 4 h p.i., read-out: Biodistribution, Pancreas) was 0.03 ± 0.01 %ID/g and the tissue uptake at 24 h ([1]; pancreas, 24 h p.i., read-out: Biodistribution, Pancreas) was 0.03 %ID/g. It also gave a tissue uptake at 120 h ([1]; pancreas, 120 h p.i., read-out: Biodistribution, Pancreas) of 0.02 %ID/g, a tissue uptake at 1 h ([1]; spleen, 1 h p.i., read-out: Biodistribution, Spleen) of 0.24 ± 0.08 %ID/g and a tissue uptake at 4 h ([1]; spleen, 4 h p.i., read-out: Biodistribution, Spleen) of 0.13 ± 0.04 %ID/g. It also gave a tissue uptake at 24 h ([1]; spleen, 24 h p.i., read-out: Biodistribution, Spleen) of 0.12 ± 0.02 %ID/g, a tissue uptake at 120 h ([1]; spleen, 120 h p.i., read-out: Biodistribution, Spleen) of 0.07 ± 0.01 %ID/g and a tissue uptake at 1 h ([1]; stomach, 1 h p.i., read-out: Biodistribution, Stomach) of 0.13 ± 0.02 %ID/g. For the same compound, the tissue uptake at 4 h ([1]; stomach, 4 h p.i., read-out: Biodistribution, Stomach) was 0.59 ± 1.14 %ID/g, the tissue uptake at 24 h ([1]; stomach, 24 h p.i., read-out: Biodistribution, Stomach) was 0.53 ± 0.48 %ID/g and the tissue uptake at 120 h ([1]; stomach, 120 h p.i., read-out: Biodistribution, Stomach) was 0.12 ± 0.16 %ID/g. For the same compound, the tissue uptake at 1 h ([1]; thyroid, 1 h p.i., read-out: Biodistribution, Thyroid) was 0.22 ± 0.09 %ID/g, the tissue uptake at 4 h ([1]; thyroid, 4 h p.i., read-out: Biodistribution, Thyroid) was 0.07 ± 0.01 %ID/g and the tissue uptake at 24 h ([1]; thyroid, 24 h p.i., read-out: Biodistribution, Thyroid) was 0.06 ± 0.01 %ID/g. For the same compound, the tissue uptake at 120 h ([1]; thyroid, 120 h p.i., read-out: Biodistribution, Thyroid) was 0.05 ± 0.01 %ID/g, the excreta dose per gram or mL at 1 h ([1]; urine, 1 h p.i.) was 227 ± 115 %ID/g and the excreta dose per gram or mL at 4 h ([1]; urine, 4 h p.i.) was 49.1 ± 39.7 %ID/g. The excreta dose per gram or mL at 24 h ([1]; urine, 24 h p.i.) was 0.46 ± 0.31 %ID/g, the excreta dose per gram or mL at 120 h ([1]; urine, 120 h p.i.) was 0.09 ± 0.06 %ID/g and the “Biodistribution, B16F10 tumour” value (B16F10 mouse melanoma; 1 h p.i.) was 4.49 ± 1.89 % ID/g. The “Biodistribution, B16F10 tumour” value (B16F10 mouse melanoma; 4 h p.i.) was 4.42 ± 0.64 % ID/g, the “Biodistribution, B16F10 tumour” value (B16F10 mouse melanoma; 24 h p.i.) was 2.04 ± 0.46 % ID/g and the “Biodistribution, Brain” value (B16F10 mouse melanoma; 24 h p.i.) was 0.00 ± 0.00 % ID/g. For the same compound, the “Biodistribution, B16F10 tumour” value (B16F10 mouse melanoma; 120 h p.i.) was 0.49 ± 0.30 % ID/g, the “Biodistribution, Blood” value (B16F10 mouse melanoma; 120 h p.i.) was 0.00 ± 0.00 % ID/g and the “Biodistribution, Brain” value (B16F10 mouse melanoma; 120 h p.i.) was 0.00 ± 0.00 % ID/g. The “Biodistribution, Seminal glands” value (B16F10 mouse melanoma; 120 h p.i.) was 0.00 ± 0.00 % ID/g.
